Measured values: PMC10300352, “Discovery of novel benzylquinazoline molecules as p97/VCP inhibitors” (Frontiers in Pharmacology, 2023)
Read-outs that look alike come from different tables or passages of the source.

What was measured:
p97 [1] = conditions: cited from earlier work
HCT116 cells [2] = assay: Cell cycle assay, PI staining and flow cytometry; format: cell-based, human; conditions: for effect on the cell cycle: HCT116, 12 h
A549 = assay: Cell proliferation assay (MTT/CCK-8), A549; conditions: Homo sapiens, A549, 48 h, read-out: IC50 A549
Method: (§1) Cells were treated with the tested compounds in a variety of concentrations and incubated at 37°C for 48 h before measurement. IC50 values were calculated using the percentage of growth of treated cells versus the blank control (Table 2).
(§2) The medium was supplemented with 10% fetal bovine serum (FBS) (Hyclone, SH30084.03). Cells were cultured in an incubator containing 5% CO2 at 37°C.
(§3) Cells were seeded at 3,000–4,000 cells per well in a 96-well plate to test the antiproliferative activity of target compounds. Cells were treated with the compounds or positive controls 6 h after seeding (twofold dilution, eight concentrations). […] The results were analyzed using GraphPad Prism 7.0.

K562 = assay: Cell proliferation assay (MTT/CCK-8), K562; conditions: Homo sapiens, K562, 48 h, read-out: IC50 K562
Method: as §1, §2, §3

s180 = assay: Cell proliferation assay (MTT/CCK-8), s180; conditions: Mus musculus, S-180, 48 h, read-out: IC50 s180
Method: (§4) Cells were treated with the tested compounds in a variety of concentrations and incubated at 37°C for 48 h before measurement. […] Furthermore, we evaluated all compounds’ potency toward the normal human cell line NCM460.
as §2, §3

HepG2 = assay: Cell proliferation assay (MTT/CCK-8), HepG2; conditions: Homo sapiens, HepG2, 48 h, read-out: IC50 HepG2
Method: as §1, §2, §3

HCT116 = assay: Cell proliferation assay (MTT/CCK-8), HCT116; conditions: Homo sapiens, HCT-116, 48 h, read-out: IC50 HCT116
Method: as §1, §2, §3

RPMI-8226 = assay: Cell proliferation assay (MTT/CCK-8), RPMI-8226; conditions: Homo sapiens, RPMI-8226, 48 h, read-out: IC50 RPMI-8226
Method: as §1, §2, §3

HCT116 cells [3] = assay: Apoptosis assay, annexin V/PI staining and flow cytometry; conditions: 10 μM, 12 h; control cells 3.5%
Method: Apoptosis was measured by flow cytometry after staining with annexin V and propidium iodide (PI) in HCT116 (Figure 5).
The assay was performed as recommended by the manufacturer. Briefly, the HCT116 cells were seeded in 6-well plates (2 × 10^6 cells/well) and allowed to adhere for 4 hours. Then, each well was treated with DMSO (0.5% v/v) or compounds for 12 h. For the apoptosis experiment, at the end of treatment, the cells were washed twice with cold PBS and then harvested for staining with annexin V in binding buffer for 15 min in the dark at room temperature. The cells were washed in binding buffer and then incubated with propidium iodide. […] The samples were measured using flow cytometry (Beckman, cytoFLEX) within 4 h and analyzed using CytExpert (V 2.4.0.28).

NCM460 = assay: Cell proliferation assay (MTT/CCK-8), normal colon mucosal epithelial cell line NCM460; conditions: Homo sapiens, NCM460, 48 h, read-out: IC50 NCM460
Method: as §4, §2, §3

p97 ATPase = p97 ATPase (Homo sapiens, UniProt P55072); assay: p97 ATPase inhibition, ADP-Glo kinase assay; conditions: for IC50 of inactivation activities against p97: ADP-Glo, 20 nM p97, 20 μM ATP
Chain of p97 ATPase (P55072 whole entry): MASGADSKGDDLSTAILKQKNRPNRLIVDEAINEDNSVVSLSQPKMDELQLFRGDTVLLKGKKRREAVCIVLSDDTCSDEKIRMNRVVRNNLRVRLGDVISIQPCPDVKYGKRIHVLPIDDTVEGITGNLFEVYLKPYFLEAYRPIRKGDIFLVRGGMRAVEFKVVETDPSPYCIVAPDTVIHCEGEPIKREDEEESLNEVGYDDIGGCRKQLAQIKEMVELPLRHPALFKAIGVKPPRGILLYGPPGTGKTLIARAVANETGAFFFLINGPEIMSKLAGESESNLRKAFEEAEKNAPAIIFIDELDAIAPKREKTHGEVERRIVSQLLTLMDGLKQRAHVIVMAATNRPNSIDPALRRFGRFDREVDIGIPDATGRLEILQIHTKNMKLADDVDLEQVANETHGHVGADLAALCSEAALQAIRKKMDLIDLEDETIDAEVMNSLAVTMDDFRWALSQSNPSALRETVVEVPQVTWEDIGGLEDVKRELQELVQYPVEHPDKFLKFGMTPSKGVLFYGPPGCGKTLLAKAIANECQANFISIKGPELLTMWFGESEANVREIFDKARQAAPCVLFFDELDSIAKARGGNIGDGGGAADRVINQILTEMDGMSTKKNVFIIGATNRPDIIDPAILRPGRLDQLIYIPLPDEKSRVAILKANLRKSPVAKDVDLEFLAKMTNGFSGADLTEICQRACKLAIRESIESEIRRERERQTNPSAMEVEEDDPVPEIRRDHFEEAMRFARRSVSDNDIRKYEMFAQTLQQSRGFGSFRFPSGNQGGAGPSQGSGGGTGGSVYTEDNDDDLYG
Method: As the major indicator of p97 inhibitors, the inactivation of p97 ATPase by the tested compounds was determined using an ADP-Glo kinase assay, in which the formation of ADP represented the activity of ATPase.
His‐tagged human VCP (hVCP) cDNA was amplified by PCR and cloned into PCR‐linearized pET15 b (Merck Millipore, Burlington, MA, United States) using a CloneEZ Kit (Genscript). The pET15 b‐hVCP plasmid was transformed into Escherichia coli BL21 (Rosetta; Novagen, Madison, WI, United States), and the transformed bacteria were pre-cultured in LB medium containing kanamycin and chloramphenicol overnight at 37°C. Protein expression was induced with 1 mmol/L isopropyl‐β‐D‐thiogalactopyranoside.
Protein concentrations were first normalized using a Pierce BCA protein assay kit (Thermo Fisher), and a standard series was prepared with the BSA provided (2 mg/ml–25 μg/μL). Twenty-five microliters of each standard and unknown sample was added to a 96-well plate in triplicate, and 200 μL of working reagent was added to each well and prepared according to the manufacturer’s guidelines.
The protein solution was diluted to 20 nM of p97 with 20 μM ATP in triplicate in 5 μL of 1× Kinase Reaction Buffer A (40 mM Tris, pH 7.5, 20 mM MgCl2, 0.1 mg/mL BSA) and incubated at 37°C for 30 min. After incubation, the solutions were equilibrated to RT for 5 min, and 5 μL of ADP-Glo reagent was added to stop the reaction and consume the remaining ATP. The solution was incubated for 40 min at RT. Ten microliters of kinase detection reagent was added and incubated for 30 min. The sample’s luminescence was recorded using a multimode microplate reader (SMP7, MD). Each sample was averaged across the three measurements and plotted as mean ± standard deviation.

His6-p97 = His6-p97 (Homo sapiens, UniProt P55072); assay: Microscale thermophoresis (MST) binding assay with fluorescent-labeled His6-p97
Chain of His6-p97 (P55072 whole entry): as above
Method: Fluorescent labeling of His6-p97 was carried out using the RED-tris-NTA labeling kit (Catalog No. MO-L011, NanoTemper Technologies) on a NanoTemper Monolith NT.115 following the manufacturer’s protocol. In brief, His6-p97 protein was diluted into 200 nM with PBST (0.05% Tween 20 in PBS), and red-NHS dye was diluted into 100 nM with PBST. Then, His6-p97 and RED-tris-NTA dye were mixed in a 1:1 volumetric ratio and incubated at room temperature for 30 min. […] Then 10 μL of compounds were mixed at different concentrations with 10 μL of dye-labeled His6-p97. Subsequently, well-mixed solutions containing compounds and dye-labeled His6-p97 were loaded into capillaries (Catalog No. MO-K025, NanoTemper Technologies), which were placed in slots 1–16 on the capillary rack. Then, MST experiments were carried out at an ambient temperature, and the instrument parameters were set to 20% LED power and medium MST power. The equilibrium dissociation constants were derived from the M.O. Affinity Analysis software using the K d model based on four independently titrated experiments per condition.

[4] = Myelosuppressive toxicity evaluation, peripheral blood counts of s180 mice; format: in vivo, ICR mice; conditions: day 10, 90 μmol/kg/day, vs vehicle
Method: To determine the effects on myelosuppression, WBC, RBC, PLT count, ALC, and ANC were performed in peripheral blood samples of s180 mice (Figure 7F) on day 10.

[5] = tested on: SQSTM1/p62, ATF4, and NF-κB in HCT116 cells; assay: Western blot of p97 downstream biomarkers; conditions: DBeQ 10 μM, CB-5083 0.5 μM, 8 h treatment
Method: HCT116 cells were plated into 6-well plates (2 × 10^6 cells/well) when they were 70%–80% confluent. DMSO (0.5% v/v) or compounds were added, and cells were harvested after 8 h of treatment and washed three times with phosphate-buffered saline (PBS, pH 7.4). […] The secondary antibodies used were goat anti-mouse IgG (HRP, Abcam/ab6789).

p97 [6] = assay: In vivo p97 expression measurement by ELISA; conditions: day 10, oral 90 μmol/kg/day
[7] = literature values of DBeQ derivatives, Figure 2, read-out: IC50 (p97 inhibitors developed by several research groups)

Kd (His6-p97) [µM] | Compound | IC50 (p97 [1]; [7]) [µM] | IC50 (A549) [µM] | IC50 (K562) [µM] | IC50 (s180) [µM] | IC50 (HepG2) [µM] | IC50 (HCT116) [µM] | IC50 (RPMI-8226) [µM] | proportion of apoptotic cells (HCT116 cells [3]) [%] | IC50 (NCM460) [µM] | also measured
 | COc1cccc2c(NCc3ccccc3)nc(NCc3ccccc3)nc12 [Compound P2-B11] | 3.4 |  |  |  |  |  |  |  |  | 
 | COc1cccc2c(NNC(=O)c3nccnc3N)ncnc12 [Compound 7, 3-Amino-Nʹ-(8-methoxyquinazolin-4-yl)pyrazine-2-carbohydrazide] |  | > 100 | > 100 | 32.4 ± 2.57 | > 100 | > 100 | 39.8 ± 0.95 | 8.94 | 27.3 ± 1.62 | effect on the cell cycle (HCT116 cells [2]): arrested the cells in both G0/G1 and S phases
 | COc1cccc2c(NCc3ccccc3)nc(-n3c(C)cc4c(NS(C)(=O)=O)cccc43)nc12 [ML-240] | 0.11 |  |  |  |  |  |  |  |  | 
0.64 ± 0.26 | O=C(NNc1ncnc2ccccc12)c1cnccn1 [Compound 4, Nʹ-(Quinazolin-4-yl)pyrazine-2-carbohydrazide] |  | > 100 | 66.7 ± 9.97 | 1.04 ± 0.37 | > 100 | 3.48 ± 0.21 | 5.24 ± 0.45 | 8.31 | 49.8 ± 3.25 | effect on the cell cycle (HCT116 cells [2]): cell proportion in the S phase in the compound 4-treated group was notably higher than that in the vehicle group; IC50 (p97 ATPase): 0.108 µM
0.4 ± 0.15 | Nc1nccnc1C(=O)NNc1ncnc2ccccc12 [Compound 5, 3-Amino-Nʹ-(quinazolin-4-yl)pyrazine-2-carbohydrazide] |  | 24.2 ± 5.39 | 1.79 ± 0.73 | 6.9 ± 2 | 4.53 ± 1.26 | 5.83 ± 1.03 | 0.75 ± 0.01 | 9.34 | 24.2 ± 1.05 | IC50 (p97 ATPase): 0.072 µM
5 | O=C(O)/C=C/c1ccc(Nc2nc(NCc3cnccn3)c3ccccc3n2)cc1 [Compound 10a, (E)-3-(4-((4-((Pyrazin-2-ylmethyl)amino)quinazolin-2-yl)amino)phenyl)acrylic acid] |  |  |  |  |  |  |  |  |  | IC50 of inactivation activities against p97 (p97 ATPase): Inactive
 | Cc1cc2c(NS(C)(=O)=O)cccc2n1-c1nc2c(c(NCc3ccccc3)n1)COCC2 [compound 35] | 0.036 |  |  |  |  |  |  |  |  | 
 | Cc1cc2c(C(N)=O)cccc2n1-c1nc2c(c(NCc3ccccc3)n1)COCC2 [CB-5083, reference compound] | 0.011 | 0.77 ± 0.38 | 0.7 ± 0.42 | 0.24 ± 0.29 | 0.16 ± 0.03 | 0.47 ± 0.16 | 0.15 ± 0.02 | 20.42 | 0.078 ± 0.015 | ALC [4]: significantly lower; ANC [4]: significantly lower; WBC [4]: significantly lower; body weight change (oral 90 μmol/kg/day, 10 days): obvious weight loss effects; death of mice during the in vivo experiments (oral 90 μmol/kg/day, 10 days): death occurred on day 8; autophagosome formation in the cytoplasm [5]: induced accumulation; levels of the ER stress biomarker (ATF4) [5]: increased levels
> 10 | COc1cccc2c(NCc3cnccn3)nc(Nc3ccc(/C=C/C(=O)O)cc3)nc12 [Compound 10b, (E)-3-(4-((8-Methoxy-4-((pyrazin-2-ylmethyl)amino)quinazolin-2-yl)amino)phenyl)acrylic acid] |  |  |  |  |  |  |  |  |  | IC50 of inactivation activities against p97 (p97 ATPase): Inactive
> 10 | NC(=O)/C=C/c1ccc(Nc2nc(NCc3cnccn3)c3ccccc3n2)cc1 [Compound 11a, (E)-3-(4-((4-((Pyrazin-2-ylmethyl)amino)quinazolin-2-yl)amino)phenyl)acrylamide] |  |  |  |  |  |  |  |  |  | IC50 of inactivation activities against p97 (p97 ATPase): Inactive
> 10 | COc1cccc2c(NCc3cnccn3)nc(Nc3ccc(/C=C/C(N)=O)cc3)nc12 [Compound 11b, (E)-3-(4-((8-Methoxy-4-((pyrazin-2-ylmethyl)amino)quinazolin-2-yl)amino)phenyl)acrylamide] |  |  |  |  |  |  |  |  |  | IC50 of inactivation activities against p97 (p97 ATPase): Inactive
 | COc1cccc2c(NNC(=O)c3cnccn3)ncnc12 [Compound 6, Nʹ-(8-Methoxyquinazolin-4-yl)pyrazine-2-carbohydrazide] |  | > 100 | > 100 | 1.72 ± 0.69 | > 100 | 2.94 ± 0.1 | 3.61 ± 0.27 | 20.68 | 36.2 ± 2.89 | ALC [4]: no significant changes; ANC [4]: no significant changes; PLT count [4]: no significant changes; RBC [4]: no significant changes; WBC [4]: no significant changes; death of mice during the in vivo experiments (mouse, in vivo, po): no mice died; body weight change (oral 90 μmol/kg/day, 10 days): No obvious loss of body weight
 | c1ccc(CNc2nc(N3CCOc4ccccc43)nc3c2CCCC3)cc1 [ML-241] | 0.1 |  |  |  |  |  |  |  |  | 

Compound | Kd (His6-p97) [µM] | IC50 (p97 [1]; [7]) [µM] | IC50 (A549) [µM] | IC50 (K562) [µM] | IC50 (s180) [µM] | IC50 (HepG2) [µM] | IC50 (HCT116) [µM] | IC50 (RPMI-8226) [µM] | proportion of apoptotic cells (HCT116 cells [3]) [%] | IC50 (NCM460) [µM] | also measured
c1ccc(CNc2nc(NCc3ccccc3)c3ccccc3n2)cc1 [DBeQ] | 0.68 ± 0.059 |  | 11.6 ± 0.84 | 5.64 ± 1.08 | 2.69 ± 0.82 | 7.57 ± 1.2 | 4.78 ± 0.22 | 4.29 ± 2.46 | 19.65 | 6.44 ± 0.36 | G0/G1 phase fraction (HCT116 cells [2]; 12 h, same concentration as apoptosis measurement, vehicle 32.82%): 33.53%; percentage of cells in the S phase (HCT116 cells [2]; 12 h, vehicle 23.61%): 16.74%; percentage of cells in the G2/M phase (HCT116 cells [2]; 12 h, vehicle 43.51%): 49.30%; effect on the cell cycle (HCT116 cells [2]): arrested the cell cycle at the G2/M phase; ALC [4]: significantly reduced; ANC [4]: no significant alterations; PLT count [4]: no significant alterations; RBC [4]: no significant alterations; WBC [4]: significantly reduced; IC50 (p97 [1]; ref Chou et al., 2011, read-out: IC50 in the ATPase activity assays): < 10 µM; autophagosome formation in the cytoplasm [5]: induced accumulation; levels of the ER stress biomarker (ATF4) [5]: increased levels; IC50 (p97 ATPase): 0.657 µM; p97 concentration in the serum (p97 [6]): lowered
